According to PMC10397409, “The action of physiological and synthetic steroids on the calcium channel CatSper in human sperm” (Frontiers in Cell and Developmental Biology, 2023):
Where two headings read alike, the source gives them in different places.

Legend:
CatSper [1] = target: T1, CatSper (Homo sapiens, UniProt Q7RTX7+Q86XQ3+Q8NEC5+Q96P56); design: method as in Carlson et al., 2022b; conditions: ref Carlson et al., 2022b; read-out: IC50 inhibiting P4-induced response; cited from earlier work
T1 construct: Motile spermatozoa were selected by a ‘swim-up’ procedure; endogenous in cells; host or cells: motile human spermatozoa (swim-up) from healthy donors

CatSper [2] = target: T1, CatSper; experiment: Steroid-induced increase in [Ca2+]i in human sperm (Fluo-4 HTS assay, screen 1 activators); type: cell-based; conditions: for Emax: read-out: Max amplitude (%) (± SD)
Method: (§1) Briefly, motile spermatozoa were selected by swim-up and labeled with the fluorescent calcium indicator Fluo-4 a.m. to image changes in [Ca^2+]i. After centrifugation to remove excess dye, Fluo-4 AM loaded cells were distributed in a 384-wells plate to obtain ∼125,000 cells/well. After measuring basal fluorescence, a first injection of compounds was performed in order to evaluate their effect on [Ca^2+]i alone. This first screen is therefore considered as a screen to search for ‘activators’. Fluorescence was recorded for 12 min during which sperm cells were continuously exposed to compounds. P4 or PGE1 were then added in the same wells to evaluate whether the tested compounds can reduce the ligand-induced activation of CatSper. This second screen was therefore considered to be a search for CatSper ‘inhibitors’.
Human semen samples were collected from healthy donors by masturbation after a recommended sexual abstinence period of minimum 2 days. Semen samples were allowed to liquefy at 37°C for 15–30 min. […] Motile sperm were allowed to swim at 37°C for 1 hour. The supernatant was collected in 15 mL Falcon tubes and washed twice by centrifugation at 700 x g for 20 min. Sperm were supplemented with 3 mg/mL HSA.
20 μL of cells (corresponding to ∼125,000 cells) loaded with Fluo-4 a.m. were dispensed in a 384-wells plate (Corning, NY, United States) to allow fluorescence measurement. The dye was excited at 480 nm, and emission was recorded at 530 nm. The change in [Ca^2+]i was assessed simultaneously in all wells using a Functional Drug Screening System (FDSS/μCELL) (Hamamatsu Phototonics K.K., Yokohama, Japan) at 37°C. Basal fluorescence was first measured for 30 s. […] P4 and PGE1 were tested at a near-saturating concentration in the HTS in order to evaluate a potential additive or synergistic effect induced by the compounds. […] For alkalization-induced Ca^2+ measurement, NH4Cl was used as a positive control at a final concentration of 10 mM. […] The Prestwick library was tested in technical duplicate. Ca^2+ response curves were normalized using the following formula F−F0/F0×100 , where F 0 is the average of the basal fluorescence prior to the addition of the compound of interest and F corresponds to the fluorescence value at each time point. The ∆F/F0 of the vehicle control (DMSO) was subtracted from all the other values to adjust for dilution and pipetting artifacts. The values of all compounds were normalized to their respective controls.
Data are shown as mean ± standard deviation (SD) with “n” referring to the number of independent experiments performed using sperm samples from ≥3 different donors. Statistical analysis and fitting of dose-response relations were performed using GraphPad Prism 8.1.1 (Prism, La Jolla, United States). To generate sigmoidal curves, the concentrations were converted to their respective log values, and the data were normalized using the following formula: 100⋅x/Fmax , where Fmax is the maximum value of the positive control. A four-parameter Hill equation with a variable Hill coefficient was fitted to generate the EC02, EC50, and IC50. Statistical significance between control and treated conditions was evaluated using a one-way analysis of variance (ANOVA), followed by Dunnett´s test. A p-value <0.05 was considered significant.

CatSper [3] = target: T1, CatSper; experiment: Inhibition of P4-induced Ca2+ influx in human sperm (screen 2 inhibitors); type: cell-based; conditions: for Max P4 inhibition (%) (± SD): 3 independent experiments
Method: as §1
(§2) Human semen samples were collected from healthy donors by masturbation after a recommended sexual abstinence period of minimum 2 days. Semen samples were allowed to liquefy at 37°C for 15–30 min. Motile spermatozoa were selected by a ‘swim-up’ procedure as previously described ([Strünker et al., 2011]). Briefly, 1 mL of semen was deposited in a 45°-inclined 50 mL Falcon tube with 4 mL of Human Tubular Fluid (HTF) medium containing: 93.8 mM NaCl, 4.7 mM KCl, 0.2 mM MgSO4, 0.37 mM KH2PO4, 2.04 mM CaCl2, 20.98 mM HEPES, 2.78 mM glucose, 21.4 mM Na-lactate, 4 mM NaHCO3, 0.33 mM Na-pyruvate, and the pH was adjusted to 7.35. Motile sperm were allowed to swim at 37°C for 1 hour. The supernatant was collected in 15 mL Falcon tubes and washed twice by centrifugation at 700 x g for 20 min. Sperm were supplemented with 3 mg/mL HSA. Written informed consent was obtained from all donors prior to donation and approved by the Cantonal Ethics Committee of the State of Geneva (CCER #14-147).
(§3) Cells were loaded with the fluorescent Ca^2+ indicator Fluo-4 AM at a final concentration of 2.5 µM for 30 min at 37°C. Excess dye was washed via centrifugation at 700 x g for 20 min and sperm were resuspended in HTF medium to obtain a final concentration of 6.25 x 10^6 cells/mL. 20 μL of cells (corresponding to ∼125,000 cells) loaded with Fluo-4 a.m. were dispensed in a 384-wells plate (Corning, NY, United States) to allow fluorescence measurement. The dye was excited at 480 nm, and emission was recorded at 530 nm. The change in [Ca^2+]i was assessed simultaneously in all wells using a Functional Drug Screening System (FDSS/μCELL) (Hamamatsu Phototonics K.K., Yokohama, Japan) at 37°C. Basal fluorescence was first measured for 30 s. […] P4 and PGE1 were tested at a near-saturating concentration in the HTS in order to evaluate a potential additive or synergistic effect induced by the compounds. Non-specific CatSper inhibitor MDL 12330A was used as a negative control at final concentration of 20 µM while DMSO was used as a vehicle control. For alkalization-induced Ca^2+ measurement, NH4Cl was used as a positive control at a final concentration of 10 mM. Fluorescence was recorded for a total of 16.5 min: 30 s before injection, 12 min after the first injection of the tested compounds, and 4 min after the second injection of either P4 or PGE1. The Prestwick library was tested in technical duplicate. Ca^2+ response curves were normalized using the following formula F−F0/F0×100 , where F 0 is the average of the basal fluorescence prior to the addition of the compound of interest and F corresponds to the fluorescence value at each time point. The ∆F/F0 of the vehicle control (DMSO) was subtracted from all the other values to adjust for dilution and pipetting artifacts. The values of all compounds were normalized to their respective controls.

CatSper [4] = target: T1, CatSper; experiment: Inhibition of PGE1-induced Ca2+ influx in human sperm (screen 2 inhibitors); type: cell-based
Method: as §1, §2, §3

human sperm = experiment: Sperm penetration in viscous media (modified Kremer test); type: cell-based; conditions: steroids 10 µM, P4 5 µM, 1 h, 1% methylcellulose
Method: The ability of sperm to penetrate in viscous media similar in viscosity to that found in the female reproductive tract was assessed using the modified Kremer test, as previously described ([Rahban et al., 2021]). Briefly, swim-up recovered and capacitated sperm cells at 3 x 10^6/mL were incubated in the absence (DMSO) or presence of steroids (10 µM), or P4 (5 µM) as a positive control for 1 h at 37°C. A glass capillary (0.2 × 4.0 × 50 mm, CM scientific, UK) was filled with 1% (w/v) methylcellulose (MC, 4000 centipoises cP) prepared with HTF media supplemented with 3 mg/mL HSA, respective compounds (10 µM), P4 (5 µM), or DMSO. The glass capillary tube was then sealed on one end with wax (Vitrex, UK) and added to the sperm cells on the open end. Sperm penetration was assessed after 1 h of incubation at 37°C by counting sperm at 1 cm using a microscope with a ×10 objective.

[5] = maximal amplitude of steroid-induced [Ca2+]i increase, relative to P4, 3 independent experiments
[6] = pooled from 3 independent experiments, read-out: Mean EC50 µM (±SD)
[7] = P4-induced response, pooled from 3 independent experiments, read-out: Mean IC50 (P4) µM (±SD)
[8] = PGE1-induced response, pooled from 3 independent experiments, read-out: Mean IC50 (PGE1) µM (±SD)
[9] = Mean EC50 µM (±SD), pooled from 3 independent experiments
[10] = Mean IC50 (P4) µM (±SD), P4-induced response, pooled from 3 independent experiments

SMILES | IC50 (CatSper [1]) | Emax (CatSper [2]; [5]) | EC50 (CatSper [2]; [6]) | Max P4 inhibition (%) (± SD) (CatSper [3]) | IC50 (CatSper [3]; [7]) | IC50 (CatSper [4]; [8]) | further results
C[C@]12CCC(=O)C=C1CC[C@@H]1[C@@H]2[C@@H](O)C[C@]2(C=O)[C@@H](C(=O)CO)CC[C@@H]12 [aldosterone] | 33.1 µM |  |  |  |  |  | 
C#C[C@]1(O)CC[C@H]2[C@@H]3CCC4=CC(=O)CC[C@@H]4[C@H]3CC[C@@]21CC [levonorgestrel] | 32.3 µM |  |  |  |  |  | 
C[C@]12CC[C@@H]3c4ccc(OS(=O)(=O)O)cc4CC[C@H]3[C@@H]1CCC2=O [Estropipate] |  | 106% | 0.159 µM | 90 (±10) % | 0.28 µM | 0.282 µM | effective concentrations as low as (dose-dependent increase in [Ca2+]i) (CatSper [2]): 10 nM; EC50 (CatSper [2]; increase in [Ca2+]i, dose-response 90 µM to 0.3 nM, read-out: EC50 (±SD)): 0.161 µM; increase in [Ca2+]i (in words) (CatSper [2]; steroids 10 µM): highest increase in [Ca^2+]i; IC50 (CatSper [3]; inhibition of P4-induced Ca2+ response, dose-response 90 µM to 0.3 nM, read-out: IC50 (±SD)): 0.288 µM; number of sperm penetrating viscous medium at 1 cm (human sperm): significant increase in cell number
C[C@H](CCC(=O)O)[C@H]1CC[C@H]2[C@@H]3[C@@H](O)C[C@@H]4C[C@H](O)CC[C@]4(C)[C@H]3CC[C@]12C [urosiol] |  |  | 7.89 µM | 13 (±3) % |  | 12.2 µM | Max amplitude (%) (± SD) (CatSper [2]; [5]): 25 (±8) %
CC(=O)O[C@]1(C(C)=O)CC[C@H]2[C@@H]3C=C(Cl)C4=CC(=O)CC[C@]4(C)[C@H]3CC[C@@]21C [chlormadinone acetate] |  | 4% | 34.7 µM | 0 (±15) % |  | 38.4 µM | 
C[C@]12CC[C@@H](O)C[C@@H]1CC[C@@H]1[C@@H]2CC[C@]2(C)C(=O)CC[C@@H]12 [androsterone] |  |  |  | 61 (±6) % |  |  | EC50 (CatSper [2]; [9]): 1.02 µM; Emax (CatSper [2]): 70%; IC50 (CatSper [3]; [10]): 2.11 µM; IC50 (CatSper [4]): 5.38 µM
C[C@]12C/C(=C/O)C(=O)C[C@@H]1CC[C@@H]1[C@@H]2CC[C@@]2(C)[C@H]1CC[C@]2(C)O [oxymetholone] |  |  |  | 62 (±9) % |  |  | EC50 (CatSper [2]; [9]): 1.3 µM; Emax (CatSper [2]): 82%; IC50 (CatSper [3]; [10]): 4.74 µM; IC50 (CatSper [4]): 11.8 µM
C#C[C@]1(O)CC[C@H]2[C@@H]3CCc4cc(O)ccc4[C@H]3CC[C@@]21C [ethinylestradiol] |  | 69% | 1.8 µM | 50 (±14) % | 3.36 µM | 6.68 µM | 
C#C[C@]1(OC(C)=O)CC[C@H]2[C@@H]3CCC4=C[C@@H](OC(C)=O)CC[C@@H]4[C@H]3CC[C@@]21C [ethynodiol diacetate] |  | 35% | 17.7 µM | 22 (±14) % | 13.9 µM | 12.2 µM | 
CC(=O)O[C@]1(C(C)=O)CC[C@H]2[C@@H]3C[C@H](C)C4=CC(=O)CC[C@]4(C)[C@H]3CC[C@@]21C [medroxyprogesterone acetate] | 6.6 µM |  |  |  |  |  | 
